In ChEMBL document CHEMBL4680273, “Teixobactin: A Paving Stone toward a New Class of Antibiotics?” (2020):
Converted amounts (≈) assume the structure as drawn. One block for each compound: values may come before it.

Legend:
Assay type in all cases: functional
Staphylococcus aureus [1] = experiment: Antibacterial activity against Staphylococcus aureus ATCC 29213
Staphylococcus aureus [2] = experiment: Antibacterial activity against methicillin- resistant Staphylococcus aureus SA86
Staphylococcus aureus [3] = experiment: Antibacterial activity against Staphylococcus aureus TH4112 incubated for 16 to 20 hrs by CLSI-based broth microdilution method; details: time 16-20 hrs
Staphylococcus aureus [4] = experiment: Antibacterial activity against methicillin- resistant Staphylococcus aureus TH4115 incubated for 16 to 20 hrs by CLSI-based broth microdilution method; details: time 16-20 hrs
Staphylococcus aureus [5] = experiment: Antibacterial activity against methicillin resistant Staphylococcus aureus USA300
Staphylococcus aureus [6] = experiment: Antibacterial activity against Staphylococcus aureus ATCC 29213 incubated for 20 hrs by CLSI-based broth microdilution checkerboard method
Staphylococcus aureus [7] = experiment: Antibacterial activity against Staphylococcus aureus ATCC 29213 incubated for 16 hrs by UV/Visible absorbance method
[8] = test system: Staphylococcus epidermidis; experiment: Antibacterial activity against Staphylococcus epidermidis ATCC 14990 incubated for 16 hrs by UV/Visible absorbance method
Staphylococcus aureus [9] = experiment: Antibacterial activity against Staphylococcus aureus SH1000 incubated for 24 hrs by CLSI-broth microdilution method; details: Staphylococcus aureus, SH1000, read-out: MIC
Pseudomonas aeruginosa = experiment: Antibacterial activity against Pseudomonas aeruginosa PAO1 incubated for 24 hrs in presence of colistin by Checkerboard assay
Staphylococcus aureus [10] = experiment: Antibacterial activity against Staphylococcus aureus 25923 incubated for 24 hrs by CLSI based broth microdilution method
Staphylococcus aureus [11] = experiment: Antibacterial activity against Staphylococcus aureus
Bacillus subtilis [12] = experiment: Antibacterial activity against Bacillus subtilis ATCC 6051 incubated for 24 hrs by CLSI based broth microdilution method
Staphylococcus aureus [13] = experiment: Antibacterial activity against methicillin resistant Staphylococcus aureus
Bacillus spizizenii = experiment: Antibacterial activity against Bacillus subtilis ATCC 6633 by M07-A9 CLSI method
Bacillus subtilis [14] = experiment: Antibacterial activity against Bacillus subtilis ATCC 6051 incubated for 16 hrs by UV/Visible absorbance method
Bacillus subtilis [15] = experiment: Antibacterial activity against Bacillus subtilis ATCC 6051 incubated for 16 hrs by two-fold serial dilution method
Enterococcus durans = experiment: Antibacterial activity against Enterococcus durans ATCC 6056 incubated for 16 hrs by two-fold serial dilution method
Streptococcus salivarius = experiment: Antibacterial activity against Streptococcus salivarius ATCC 13419 incubated for 16 hrs by two-fold serial dilution method
Staphylococcus aureus [16] = experiment: Antibacterial activity against Staphylococcus aureus ATCC 29213 incubated for 16 hrs by two-fold serial dilution method
[17] = test system: Staphylococcus epidermidis; experiment: Antibacterial activity against Staphylococcus epidermidis ATCC 14990 incubated for 16 hrs by two-fold serial dilution method
Staphylococcus aureus [18] = experiment: Antibacterial activity against methicillin resistant Staphylococcus aureus ATCC 33591 infected in iv dosed CD1 mouse model of septicemia assessed as protection against lethal infection administered as single dose starting from 1 hr post infection and measured 48 hrs post infection relative to control; details: ATCC 33591, iv, time 47 hrs, read-out: PD50

SMILES: CC[C@H](C)[C@H](NC(=O)[C@H](NC(=O)[C@@H](CCC(N)=O)NC(=O)[C@H](CO)NC(=O)[C@H](CC(C)C)NC(=O)[C@@H](Cc1ccccc1)NC)[C@@H](C)CC)C(=O)N[C@@H](CO)C(=O)N[C@H]1C(=O)N[C@@H](C)C(=O)NC(CCCN)C(=O)N[C@@H]([C@@H](C)CC)C(=O)O[C@H]1C (stereo not given in full)
MIC (Staphylococcus aureus [1]): 4 µg/mL (≈ 3.33 µM) | MIC (Staphylococcus aureus [2]): 4 µg/mL (≈ 3.33 µM)

SMILES: CC[C@H](C)[C@H](NC(=O)[C@H](NC(=O)[C@@H](CCC(N)=O)NC(=O)[C@H](CO)NC(=O)[C@@H](NC(=O)[C@@H](Cc1ccccc1)NC)C(C)C)[C@@H](C)CC)C(=O)N[C@@H](CO)C(=O)N[C@H]1C(=O)N[C@@H](C)C(=O)NC(CCCN)C(=O)N[C@@H]([C@@H](C)CC)C(=O)O[C@H]1C (stereo not given in full)
MIC (Staphylococcus aureus [1]): 8 µg/mL (≈ 6.73 µM) | MIC (Staphylococcus aureus [2]): 8 µg/mL (≈ 6.73 µM)

SMILES: CC[C@H](C)[C@H](NC(=O)[C@@H](Cc1ccc(-c2ccccc2)cc1)NC)C(=O)N[C@@H](CO)C(=O)N[C@H](CCCNC(=N)N)C(=O)N[C@@H](C(=O)N[C@H](C(=O)N[C@@H](CO)C(=O)N[C@H]1C(=O)N[C@@H](C)C(=O)N[C@@H](C[C@H]2CNC(=N)N2)C(=O)N[C@@H]([C@@H](C)CC)C(=O)O[C@H]1C)[C@@H](C)CC)[C@@H](C)CC
MIC (Staphylococcus aureus [3]): 0.25 µg/mL (≈ 0.186 µM) | MIC (Staphylococcus aureus [4]): 0.25 µg/mL (≈ 0.186 µM)

SMILES: CC[C@H](C)[C@H](NC(=O)[C@@H](Cc1ccccc1)NC)C(=O)N[C@@H](CO)C(=O)N[C@H](CCC(N)=O)C(=O)N[C@@H](C(=O)N[C@H](C(=O)N[C@@H](CO)C(=O)N[C@H]1C(=O)N[C@@H](C)C(=O)N[C@@H](CCC/N=C(\N)N(C)C)C(=O)N[C@@H]([C@@H](C)CC)C(=O)O[C@H]1C)[C@@H](C)CC)[C@@H](C)CC
MIC (Staphylococcus aureus [5]): 4 µg/mL (≈ 3.14 µM)

MIC (Staphylococcus aureus [6]): 16 µg/mL
SMILES: CC[C@H](C)[C@H](NC(=O)[C@@H](Cc1ccccc1)NC)C(=O)N[C@@H](CO)C(=O)N[C@H](CCC(N)=O)C(=O)N[C@@H](C(=O)N(C)[C@H](C(=O)N[C@@H](CO)C(=O)N[C@H]1C(=O)N[C@@H](C)C(=O)N[C@@H](CCCCN)C(=O)N[C@@H]([C@@H](C)CC)C(=O)O[C@H]1C)[C@@H](C)CC)[C@@H](C)CC

MIC (Staphylococcus aureus [7]): 16 µg/mL (≈ 13 µM) | MIC [8]: 16 µg/mL (≈ 13 µM)
SMILES: CC[C@H](C)[C@H](NC(=O)[C@@H](Cc1ccccc1)NC)C(=O)N[C@@H](CO)C(=O)N(C)[C@H](CCC(N)=O)C(=O)N[C@@H](C(=O)N[C@H](C(=O)N[C@@H](CO)C(=O)N[C@H]1C(=O)N[C@@H](C)C(=O)N[C@@H](CCCCN)C(=O)N[C@@H]([C@@H](C)CC)C(=O)O[C@H]1C)[C@@H](C)CC)[C@@H](C)CC

MIC (Staphylococcus aureus [9]): 8 µg/mL (≈ 6.37 µM) | MIC (Pseudomonas aeruginosa): 32 µg/mL
SMILES: CCCCC1NC(=O)C(CCCC(F)(F)F)NC(=O)[C@H](C)NC(=O)[C@H](NC(=O)[C@H](CO)NC(=O)[C@@H](NC(=O)[C@H](NC(=O)[C@@H](CCC(N)=O)NC(=O)[C@H](CO)NC(=O)[C@@H](NC(=O)[C@@H](Cc2ccccc2)NC)[C@@H](C)CC)[C@@H](C)CC)[C@@H](C)CC)[C@H](C)OC1=O (stereo not given in full)

SMILES: CC[C@H](C)[C@H](NC(=O)[C@@H](Cc1ccccc1)NC)C(=O)N[C@@H](CO)C(=O)N[C@H](CCC(N)=O)C(=O)N[C@@H](C(=O)N[C@H](C(=O)N[C@@H](CO)C(=O)N[C@H]1C(=O)N[C@@H](C)C(=O)N[C@@H](CCCNC(=N)N)C(=O)N[C@@H]([C@@H](C)CC)C(=O)O[C@H]1C)[C@@H](C)CC)[C@@H](C)CC
MIC (Staphylococcus aureus [10]): 1.6 µg/mL (≈ 1.29 µM) | MIC (Staphylococcus aureus [11]): 2 µg/mL (≈ 1.61 µM) | MIC (Bacillus subtilis [12]): 0.4 µg/mL (≈ 0.321 µM)

MIC [8]: 1 µg/mL (≈ 0.813 µM)
SMILES: CC[C@H](C)[C@@H]1NC(=O)[C@H](CCCNC(=N)N)NC(=O)[C@H](C)NC(=O)[C@H](NC(=O)[C@H](CO)NC(=O)[C@@H](NC(=O)[C@H](NC(=O)[C@@H](CCC(N)=O)NC(=O)[C@H](CO)NC(=O)[C@@H](NC(=O)[C@@H](Cc2ccccc2)NC)[C@@H](C)CC)[C@@H](C)CC)[C@@H](C)CC)CNC1=O

SMILES: CC[C@H](C)[C@H](NC(=O)[C@@H](Cc1ccccc1)NC)C(=O)N[C@@H](CO)C(=O)N[C@H](CCC(N)=O)C(=O)N[C@@H](C(=O)N[C@H](C(=O)N[C@@H](CO)C(=O)N[C@H]1C(=O)N[C@@H](C)C(=O)NC(CCCN)C(=O)N[C@@H]([C@@H](C)CC)C(=O)O[C@H]1C)[C@@H](C)CC)C(C)C (stereo not given in full)
MIC (Staphylococcus aureus [1]): 8 µg/mL (≈ 6.73 µM) | MIC (Staphylococcus aureus [2]): 16 µg/mL (≈ 13.5 µM)

MIC (Staphylococcus aureus [9]): 8 µg/mL (≈ 6.43 µM) | MIC (Pseudomonas aeruginosa): 64 µg/mL
SMILES: CCCCC1NC(=O)[C@H](CCCNC(=N)N)NC(=O)[C@H](C)NC(=O)[C@H](NC(=O)[C@H](CO)NC(=O)[C@@H](NC(=O)[C@H](NC(=O)[C@@H](CCC(N)=O)NC(=O)[C@H](CO)NC(=O)[C@@H](NC(=O)[C@@H](Cc2ccccc2)NC)[C@@H](C)CC)[C@@H](C)CC)[C@@H](C)CC)[C@H](C)OC1=O (stereo not given in full)

SMILES: CC[C@H](C)[C@H](NC(=O)[C@@H](Cc1ccccc1)NC)C(=O)N[C@@H](CO)C(=O)N[C@H](CCC(N)=O)C(=O)N[C@@H](C(=O)N[C@H](C(=O)N[C@@H](CO)C(=O)N[C@H]1C(=O)N[C@@H](C)C(=O)N[C@@H](Cc2ncc[nH]2)C(=O)N[C@@H]([C@@H](C)CC)C(=O)O[C@H]1C)[C@@H](C)CC)[C@@H](C)CC
MIC (Staphylococcus aureus [13]): 2 µg/mL (≈ 1.63 µM) | MIC (Bacillus spizizenii): 8 µg/mL (≈ 6.53 µM) | MIC (Staphylococcus aureus [5]): 16 µg/mL (≈ 13.1 µM)

SMILES: CC[C@H](C)[C@H](NC(=O)[C@@H](Cc1ccccc1)NC)C(=O)N[C@@H](CO)C(=O)N[C@H](CCC(N)=O)C(=O)N[C@@H](C(=O)N[C@H](C(=O)N[C@@H](CO)C(=O)N[C@H]1C(=O)N[C@@H](C)C(=O)NC(CCCN)C(=O)N[C@@H](C(C)C)C(=O)O[C@H]1C)[C@@H](C)CC)[C@@H](C)CC (stereo not given in full)
MIC (Staphylococcus aureus [1]): 8 µg/mL (≈ 6.73 µM) | MIC (Staphylococcus aureus [2]): 8 µg/mL (≈ 6.73 µM)

MIC [8]: 2 µg/mL (≈ 1.61 µM) | MIC (Bacillus subtilis [14]): 2 µg/mL (≈ 1.61 µM)
SMILES: CC[C@@H](C)[C@H](NC(=O)[C@H](CCC(N)=O)NC(=O)[C@@H](CO)NC(=O)[C@H](NC(=O)[C@H](Cc1ccccc1)NC)[C@H](C)CC)C(=O)N[C@@H](C(=O)N[C@H](CO)C(=O)N[C@@H]1C(=O)N[C@H](C)C(=O)N[C@H](CCCNC(=N)N)C(=O)N[C@H]([C@H](C)CC)C(=O)O[C@@H]1C)[C@H](C)CC

SMILES: CC[C@H](C)[C@H](NC(=O)[C@@H](Cc1ccccc1)NC)C(=O)N[C@@H](CO)C(=O)N[C@H](CCC(N)=O)C(=O)N[C@@H](C(=O)N[C@H](C(=O)N[C@@H](CO)C(=O)N[C@H]1C(=O)N[C@@H](C)C(=O)N[C@@H](CCCNC(N)=O)C(=O)N[C@@H]([C@@H](C)CC)C(=O)O[C@H]1C)[C@@H](C)CC)[C@@H](C)CC
MIC (Staphylococcus aureus [5]): 16 µg/mL (≈ 12.8 µM)

MIC (Staphylococcus aureus [3]): 0.185 µg/mL (≈ 0.151 µM)
SMILES: CC[C@H](C)[C@@H]1NC(=O)[C@H](C[C@H]2CNC(=N)N2)NC(=O)[C@H](C)NC(=O)[C@H](NC(=O)[C@H](CO)NC(=O)[C@@H](NC(=O)[C@H](NC(=O)[C@@H](CCC(N)=O)NC(=O)[C@H](CO)NC(=O)[C@@H](NC(=O)[C@@H](Cc2ccccc2)NC)[C@@H](C)CC)[C@@H](C)CC)[C@@H](C)CC)CNC1=O

MIC (Bacillus subtilis [15]): 4 µg/mL (≈ 2.17 µM) | MIC (Enterococcus durans): 8 µg/mL (≈ 4.34 µM) | MIC (Streptococcus salivarius): 4 µg/mL (≈ 2.17 µM) | MIC (Staphylococcus aureus [16]): 8 µg/mL (≈ 4.34 µM) | MIC [17]: 8 µg/mL (≈ 4.34 µM)
SMILES: CC[C@H](C)[C@H](NC(=O)[C@@H](Cc1ccccc1)NC)C(=O)N[C@@H](CO)C(=O)N[C@H](CCC(N)=O)C(=O)N[C@@H](C(=O)N[C@H](C(=O)N[C@@H](CO)C(=O)N[C@H]1C(=O)N[C@@H](CCCCNS(=O)(=O)c2ccc(-c3c4ccc(=[N+](CC)CC)cc-4oc4cc(N(CC)CC)ccc34)c(S(=O)(=O)[O-])c2)C(=O)N[C@@H](CCCNC(=N)N)C(=O)N[C@@H]([C@@H](C)CC)C(=O)O[C@H]1C)[C@@H](C)CC)[C@@H](C)CC

SMILES: CN[C@H](CC(C)C)C(=O)N[C@H]1C(=O)N[C@@H](CC(N)=O)C(=O)N[C@H]2C(=O)N[C@H]3C(=O)N[C@H](C(=O)N[C@H](C(=O)O)c4cc(O)cc(O)c4-c4cc3ccc4O)[C@H](O)c3ccc(c(Cl)c3)Oc3cc2cc(c3O[C@@H]2O[C@H](CO)[C@@H](O)[C@H](O)[C@H]2O[C@H]2C[C@](C)(N)[C@H](O)[C@H](C)O2)Oc2ccc(cc2Cl)[C@H]1O [VANCOMYCIN]
ED50 (Staphylococcus aureus [18]): 2.75 mg/kg
